# Source: ChEMBL document CHEMBL1201862, “PubChem BioAssay data set” (2004)
# Activity calls are given as the source filed them. No stated cut-off is given here; in the data, actives have a measured IC50 and inactives only a lower limit.
# Target: Envelope glycoprotein gp160 (Human immunodeficiency virus 1, UniProt Q6QLK5)
# Assay: inhibitors of HIV fusion peptide binding, primary screen, biochemical, uHTS, fluorescence dequenching (AID 1986)
# Envelope glycoprotein gp160, sequence (Q6QLK5 whole entry, the tested form may be a part): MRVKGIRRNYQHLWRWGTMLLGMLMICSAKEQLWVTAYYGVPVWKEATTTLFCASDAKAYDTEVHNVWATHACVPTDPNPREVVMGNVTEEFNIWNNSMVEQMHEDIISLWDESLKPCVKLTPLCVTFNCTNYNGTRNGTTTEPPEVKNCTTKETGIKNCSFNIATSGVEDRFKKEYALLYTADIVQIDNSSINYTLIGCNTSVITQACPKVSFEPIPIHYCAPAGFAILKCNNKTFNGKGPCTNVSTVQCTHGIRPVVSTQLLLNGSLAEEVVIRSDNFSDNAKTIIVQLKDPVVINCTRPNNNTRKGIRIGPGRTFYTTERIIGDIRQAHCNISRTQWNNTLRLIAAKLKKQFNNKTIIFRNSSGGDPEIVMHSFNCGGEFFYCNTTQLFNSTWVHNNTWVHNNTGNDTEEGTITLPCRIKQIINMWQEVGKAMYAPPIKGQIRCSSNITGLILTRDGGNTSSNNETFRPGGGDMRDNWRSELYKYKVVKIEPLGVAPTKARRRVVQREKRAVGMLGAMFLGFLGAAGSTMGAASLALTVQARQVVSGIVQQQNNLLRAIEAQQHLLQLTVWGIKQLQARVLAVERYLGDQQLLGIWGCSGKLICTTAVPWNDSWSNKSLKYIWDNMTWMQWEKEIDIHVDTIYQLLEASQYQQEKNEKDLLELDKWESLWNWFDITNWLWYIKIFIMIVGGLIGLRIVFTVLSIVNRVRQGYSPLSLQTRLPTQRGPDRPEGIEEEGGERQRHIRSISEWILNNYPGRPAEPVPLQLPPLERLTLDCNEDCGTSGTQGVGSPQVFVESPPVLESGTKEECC
compound,measurement,value
COc1cc(/C=C(\C#N)c2nc3ccccc3s2)cc([N+](=O)[O-])c1O,IC50,8.88 µM (active)
